Measurements reported in the NIST ThermoML archive (doi:10.1016/j.tca.2014.12.004).

Key:
[1] = Molar enthalpy of transition or fusion; settings: Crystal; DSC
[2] = for thermal conductivity: 101.33 kPa

CCCCCCCCCCCC(=O)O [dodecanoic acid]
Settings | Molar enthalpy of transition or fusion [kJ/mol]
[1] | 31.7

[2]
Settings | Normal melting temperature [°C] | thermal conductivity [W/m/K]
303.15 K, Crystal | – | 0.216
308.15 K, Crystal | – | 0.218
313.15 K, Crystal | – | 0.208
323.15 K, Liquid | – | 0.14
333.15 K, Liquid | – | 0.14
Crystal, DTA | 42.80 | –
